Measured values reported in PubChem BioAssay AID330 (DTP/NCI, 2004).
Several values for one entry are separate records, joined by “and”; a condition that tells them apart may be missing. Equal values may be shown once. Toxic doses and inconclusive results are not listed.

Tested on: P388 leukemia ip, CD2F1 mice, survival T/C
Assay: NCI In Vivo Anticancer Drug Screen. Data for tumor model P388 Leukemia (intraperitoneal) in CD2F1 (CDF1) mice
Details: endpoint: median survival time, higher = longer survival
How it was run: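 Mice carrying the transplanted tumor received test compound or vehicle. Survival was recorded in each group, and the value is the treated-group measurement divided by that of the vehicle-treated control group.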

[1] = dose: 50.0 mg/kg/injection, schedule: Q01DX009 (ip), vehicle: Klucel (hydroxypropylcellulose) (HPC)
[2] = dose: 100.0 mg/kg/injection, schedule: Q01DX009 (ip), vehicle: Klucel (hydroxypropylcellulose) (HPC)
[3] = dose: 200.0 mg/kg/injection, schedule: Q01DX009 (ip), vehicle: Klucel (hydroxypropylcellulose) (HPC)
[4] = dose: 50.0 mg/kg/injection, schedule: Q01DX005 (ip), vehicle: saline with Tween-80
[5] = dose: 200.0 mg/kg/injection, schedule: Q01DX005 (ip), vehicle: saline with Tween-80
[6] = dose: 60.0 mg/kg/injection, schedule: Q01DX005 (ip), vehicle: saline with Tween-80
[7] = dose: 120.0 mg/kg/injection, schedule: Q01DX005 (ip), vehicle: saline with Tween-80
[8] = dose: 240.0 mg/kg/injection, schedule: Q01DX005 (ip), vehicle: saline with Tween-80
[9] = dose: 12.5 mg/kg/injection, schedule: Q01DX009 (ip), vehicle: saline with Tween-80
[10] = dose: 50.0 mg/kg/injection, schedule: Q01DX009 (ip), vehicle: saline with Tween-80
[11] = dose: 100.0 mg/kg/injection, schedule: Q01DX009 (ip), vehicle: saline with Tween-80
[12] = dose: 200.0 mg/kg/injection, schedule: Q01DX009 (ip), vehicle: saline with Tween-80
[13] = dose: 50.0 mg/kg/injection, schedule: Q01DX005 (ip), vehicle: Klucel (hydroxypropylcellulose) (HPC)
[14] = dose: 100.0 mg/kg/injection, schedule: Q01DX005 (ip), vehicle: Klucel (hydroxypropylcellulose) (HPC)
[15] = dose: 200.0 mg/kg/injection, schedule: Q01DX005 (ip), vehicle: Klucel (hydroxypropylcellulose) (HPC)

In the case of `NCP(=O)(CN)CN`, the T/C [1] was 99 % of control, the T/C [2] was 100 % of control and the T/C [3] was 100 % of control.
In the case of `COc1ccc(C(Nc2ccccn2)c2cc(C(C)(C)C)c(O)c(C(C)(C)C)c2)cc1` (stereo unspecified), the T/C [4] was 88 % of control, the T/C (dose: 100.0 mg/kg/injection, schedule: Q01DX005 (ip), vehicle: saline with Tween-80) was 91 % of control and the T/C [5] was 95 % of control.
For `CC1CCC(C(C)C)C([c-]2[c-][c-][c-][c-]2)C1.CC1CCC(C(C)C)C([c-]2[c-][c-][c-][c-]2)C1.[Cl][Zr][Cl]` (stereo unspecified), the T/C (dose: 6.25 mg/kg/injection, schedule: Q01DX001 (ip), vehicle: Klucel (hydroxypropylcellulose) (HPC)) was 110 % of control, the T/C (dose: 12.5 mg/kg/injection, schedule: Q01DX001 (ip), vehicle: Klucel (hydroxypropylcellulose) (HPC)) was 100 % of control and the T/C (dose: 25.0 mg/kg/injection, schedule: Q01DX001 (ip), vehicle: Klucel (hydroxypropylcellulose) (HPC)) was 103 % of control.
With `CC(=O)OC12CCCCC1C1(CCCCC1)N=[N+]2[O-]` (stereo unspecified) the T/C (dose: 12.5 mg/kg/injection, schedule: Q01DX009 (ip), vehicle: other) was 105 % of control, the T/C (dose: 25.0 mg/kg/injection, schedule: Q01DX009 (ip), vehicle: other) was 115 % of control and the T/C (dose: 50.0 mg/kg/injection, schedule: Q01DX009 (ip), vehicle: other) was 100 % of control. The T/C (dose: 100.0 mg/kg/injection, schedule: Q01DX009 (ip), vehicle: other) was 99 % of control and the T/C (dose: 200.0 mg/kg/injection, schedule: Q01DX009 (ip), vehicle: other) was 112 % of control.
With `CCCCCCCCCCCCCCCC[N+]1(CC)CCOCC1` the T/C (dose: 1.56 mg/kg/injection, schedule: Q01DX009 (ip), vehicle: saline) was 105 % of control and 100 % of control, the T/C (dose: 3.12 mg/kg/injection, schedule: Q01DX009 (ip), vehicle: saline) was 99 % of control and the T/C (dose: 12.5 mg/kg/injection, schedule: Q01DX009 (ip), vehicle: saline) was 115 % of control and 105 % of control.
`CC(C)(/C=C/c1ccccc1)N=Cc1ccccc1` was tested, and the T/C [6] was 100 % of control, the T/C [7] was 104 % of control and the T/C [8] was 98 % of control.
For `O=C(CCCc1ccc(N(CCCl)CCCl)cc1)OCCOc1ccccc1`, the T/C [9] was 155 % of control, the T/C (dose: 25.0 mg/kg/injection, schedule: Q01DX009 (ip), vehicle: saline with Tween-80) was 223 % of control and the T/C [10] was 174 % of control and 200 % of control.
In the case of `COc1ccccc1C1=Nc2ccccc2N=C(c2ccccc2O)C1`, the T/C [6] was 107 % of control, the T/C [7] was 100 % of control and the T/C [8] was 90 % of control.
In the case of `CCC1CCC2COCN2C1` (stereo unspecified), the T/C (dose: 25.0 mg/kg/injection, schedule: Q01DX005 (ip), vehicle: saline) was 104 % of control, the T/C (dose: 50.0 mg/kg/injection, schedule: Q01DX005 (ip), vehicle: saline) was 120 % of control and the T/C (dose: 200.0 mg/kg/injection, schedule: Q01DX005 (ip), vehicle: saline) was 117 % of control and 118 % of control.
In the case of `O=C(CC1C2CC3CC(C2)CC1C3)C1C2CC3CC(C2)CC1C3` (stereo unspecified), the T/C [10] was 97 % of control, the T/C [11] was 97 % of control and the T/C [12] was 97 % of control.
In the case of `CC(=O)C1C(=O)C(=O)N(c2cc(C)ccc2O)C1=O` (stereo unspecified), the T/C [1] was 106 % of control, the T/C [2] was 107 % of control and the T/C [3] was 104 % of control.
For `CCOP1(OCC)(OCC)OC(C(F)(F)F)(C(F)(F)F)C(C(F)(F)F)(C(F)(F)F)O1`, the T/C (dose: 6.25 mg/kg/injection, schedule: Q01DX009 (ip), vehicle: saline with Tween-80) was 100 % of control and the T/C [9] was 105 % of control.
In the case of `N#CC1=CC2C3C(=O)N(c4ccccc4)C(=O)C3C1N(Cc1ccccc1)C2c1ccccc1` (stereo unspecified), the T/C (dose: 12.5 mg/kg/injection, schedule: Q01DX005 (ip), vehicle: saline with Tween-80) was 95 % of control, the T/C (dose: 12.5 mg/kg/injection, schedule: Q04DX002 (ip), vehicle: saline with Tween-80) was 102 % of control and the T/C (dose: 25.0 mg/kg/injection, schedule: Q01DX005 (ip), vehicle: saline with Tween-80) was 91 % of control. The T/C (dose: 25.0 mg/kg/injection, schedule: Q04DX002 (ip), vehicle: saline with Tween-80) was 94 % of control, the T/C [4] was 89 % of control and the T/C (dose: 50.0 mg/kg/injection, schedule: Q04DX002 (ip), vehicle: saline with Tween-80) was 94 % of control. For the same compound, the T/C [5] was 87 % of control, the T/C (dose: 200.0 mg/kg/injection, schedule: Q04DX002 (ip), vehicle: saline with Tween-80) was 87 % of control and the T/C (dose: 400.0 mg/kg/injection, schedule: Q04DX002 (ip), vehicle: saline with Tween-80) was 89 % of control.
In the case of `CN(C)/C(=N\O)c1ccccc1`, the T/C (dose: 3.12 mg/kg/injection, schedule: Q04DX003 (ip), vehicle: saline) was 100 % of control and 105 % of control, the T/C (dose: 6.25 mg/kg/injection, schedule: Q04DX003 (ip), vehicle: saline) was 100 % of control and 90 % of control and the T/C (dose: 12.5 mg/kg/injection, schedule: Q04DX003 (ip), vehicle: saline) was 100 % of control and 95 % of control.
`CNNS(=O)(=O)CC(O)C(Cl)(Cl)Cl` (stereo unspecified) was tested, and the T/C (dose: 50.0 mg/kg/injection, schedule: Q01DX009 (ip), vehicle: saline) was 106 % of control and the T/C (dose: 100.0 mg/kg/injection, schedule: Q01DX009 (ip), vehicle: saline) was 101 % of control.
In the case of `NC(=O)/C=C\C(=O)NC1CCSC1=O` (stereo unspecified), the T/C (dose: 60.0 mg/kg/injection, schedule: Q01DX005 (ip), vehicle: saline + Tween-80 + alcohol) was 105 % of control, the T/C (dose: 120.0 mg/kg/injection, schedule: Q01DX005 (ip), vehicle: saline + Tween-80 + alcohol) was 94 % of control and the T/C (dose: 240.0 mg/kg/injection, schedule: Q01DX005 (ip), vehicle: saline + Tween-80 + alcohol) was 100 % of control.
For `Cn1cc(O)c(=O)n(C)c1=O`, the T/C (dose: 100.0 mg/kg/injection, schedule: Q04DX003 (ip), vehicle: saline with Tween-80) was 99 % of control, the T/C (dose: 200.0 mg/kg/injection, schedule: Q04DX003 (ip), vehicle: saline with Tween-80) was 105 % of control and the T/C (dose: 400.0 mg/kg/injection, schedule: Q04DX003 (ip), vehicle: saline with Tween-80) was 100 % of control.
In the case of `O=C(NC[N+]12CCO[B-]1(c1ccc(Cl)cc1)OCC2)c1ccccc1O` (stereo unspecified), the T/C [13] was 106 % of control, the T/C [14] was 98 % of control and the T/C [15] was 103 % of control.
For `COc1ccc2c(c1)CCc1c-2nc(N)nc1-c1nc(N)nc2c1CCc1cc(OC)ccc1-2`, the T/C [6] was 100 % of control, the T/C [7] was 100 % of control and the T/C [8] was 100 % of control.
For `O=C(O)/C=C(/CC(=O)O)c1ccc(O)cc1`, the T/C (dose: 60.0 mg/kg/injection, schedule: Q01DX005 (ip), vehicle: Klucel (hydroxypropylcellulose) (HPC)) was 97 % of control, the T/C (dose: 120.0 mg/kg/injection, schedule: Q01DX005 (ip), vehicle: Klucel (hydroxypropylcellulose) (HPC)) was 102 % of control and the T/C (dose: 240.0 mg/kg/injection, schedule: Q01DX005 (ip), vehicle: Klucel (hydroxypropylcellulose) (HPC)) was 100 % of control.
With `CCOC(=O)/C(C#N)=C(\CCC(C(=O)O)N1C(=O)c2ccccc2C1=O)OC` (stereo unspecified) the T/C (dose: 100.0 mg/kg/injection, schedule: Q04DX002 (ip), vehicle: Klucel (hydroxypropylcellulose) (HPC)) was 102 % of control, the T/C (dose: 200.0 mg/kg/injection, schedule: Q04DX002 (ip), vehicle: Klucel (hydroxypropylcellulose) (HPC)) was 102 % of control and the T/C (dose: 400.0 mg/kg/injection, schedule: Q04DX002 (ip), vehicle: Klucel (hydroxypropylcellulose) (HPC)) was 110 % of control.
For `CCCC(=O)Oc1c(OC)cc(O)c2c(=O)c(O)c(-c3ccc(OC)cc3)oc12`, the T/C (dose: 14.0 mg/kg/injection, schedule: Q01DX005 (ip), vehicle: Klucel (hydroxypropylcellulose) (HPC)) was 89 % of control, the T/C (dose: 56.0 mg/kg/injection, schedule: Q01DX005 (ip), vehicle: Klucel (hydroxypropylcellulose) (HPC)) was 87 % of control and the T/C (dose: 112.0 mg/kg/injection, schedule: Q01DX005 (ip), vehicle: Klucel (hydroxypropylcellulose) (HPC)) was 108 % of control.
With `COC(=O)CCSCc1ccccc1` the T/C (dose: 60.0 mg/kg/injection, schedule: Q01DX005 (ip), vehicle: saline) was 100 % of control, the T/C (dose: 120.0 mg/kg/injection, schedule: Q01DX005 (ip), vehicle: saline) was 100 % of control and the T/C (dose: 240.0 mg/kg/injection, schedule: Q01DX005 (ip), vehicle: saline) was 109 % of control.
In the case of `O=C1CCC(=O)N1CNCCc1cc(Cl)cc(Cl)c1O`, the T/C [10] was 102 % of control, the T/C [11] was 103 % of control and the T/C [12] was 94 % of control.
For `O=C(NCc1ccco1)Nc1ccccc1[N+](=O)[O-]`, the T/C [13] was 96 % of control, the T/C [14] was 95 % of control and the T/C [15] was 95 % of control.
